Assay [1] has as its target T1, CDK1:Cyclin-B (Homo sapiens, UniProt P06493).
T1 construct: purchased New England Biolabs, Beverly, Mass; 6020; host or cells: insect cells
The assay is described as follows: CDK1 Screening Assay. In kind it is biochemical. The conditions noted are these: 33P-γ-ATP incorporation, 10 μM ATP. Here is the method:
(§1) A kinase reaction mixture was prepared containing 50 mM Tris-HCl pH=8, 10 mM MgCl2, 0.1 mM […], 1 mM DTT, 10 μM ATP, 0.025 μM biotinylated histone-HI peptide substrate and […] per well ^33P-γ-ATP (2000-3000 Ci/mmol). 70 μL of the kinase reaction mixture was dispensed into the well of a streptavidin coated FlashPlate™ (Cat. # SMP103, NEN, Boston, Mass.). Then 1 μL of test compound stock in 100% DMSO was added to the wells resulting in a final concentration of 1% DMSO in the reaction with a 100 μL final reaction volume.
(§2) The CDK1:Cyclin-B protein was then diluted in 50 mM Tris-HCl pH=8.0, 0.1% BSA at a concentration of 1 ng per μL and 30 μL (30 ng enzyme per test well) was added to each well to initiate the reaction. The reaction was incubated for one hour at 30° C. At the end of the 1 h incubation, the reaction was terminated by aspirating the mixture from the plate and washing the wells twice with PBS containing 100 mM EDTA. The histone-H1 biotinylated peptide substrate became immobilized on the Flashplate™ and the incorporation of ^33P-γ-ATP was measured by reading the plate on a scintillation counter. Inhibition of the enzymatic activity of CDK1 was measured by observing a reduced amount of ^33P-γ-ATP incorporated into the immobilized peptide.
The CDK1 used was isolated from insect cells expressing both the human CDK1 catalytic subunit and its positive regulatory subunit cyclin B (New England Biolabs, Beverly, Mass., Cat. #6020).
(§3) • VEGF-R2, HER2 and (Biotin)[…]-Amide • RET kinases • CDK1 (Biotin)[…]-Amide • Aurora-A kinase Biotin-[…]-Amide

In assay [2] the target is T2, VEGF-R2 (Rattus norvegicus, UniProt O08775).
T2 construct: polyhistidine (N)
T2 sequence (O08775 786-1343): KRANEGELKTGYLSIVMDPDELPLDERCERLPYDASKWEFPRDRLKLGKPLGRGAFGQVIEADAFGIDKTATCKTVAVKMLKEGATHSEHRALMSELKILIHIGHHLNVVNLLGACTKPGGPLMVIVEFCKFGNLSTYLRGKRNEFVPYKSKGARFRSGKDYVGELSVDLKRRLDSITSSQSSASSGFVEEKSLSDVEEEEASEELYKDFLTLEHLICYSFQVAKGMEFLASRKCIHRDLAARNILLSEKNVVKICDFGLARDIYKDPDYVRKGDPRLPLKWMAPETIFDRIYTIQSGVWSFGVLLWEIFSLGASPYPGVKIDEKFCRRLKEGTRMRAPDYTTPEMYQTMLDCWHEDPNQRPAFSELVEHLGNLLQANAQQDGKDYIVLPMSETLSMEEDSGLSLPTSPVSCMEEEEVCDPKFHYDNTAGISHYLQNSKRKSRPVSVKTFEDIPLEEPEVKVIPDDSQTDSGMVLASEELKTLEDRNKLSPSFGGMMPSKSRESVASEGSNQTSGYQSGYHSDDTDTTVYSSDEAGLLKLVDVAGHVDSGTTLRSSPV
In words: VEGF-R2 Screening Assay. Type of assay: biochemical. The conditions noted are these: 33P-γ-ATP incorporation, 10 μM ATP. Here is the method: as §2, with “Then 1 μL of test compound stock in 100% DMSO was added to the wells resulting in a final concentration of 1% DMSO in the reaction with a 100 μL final reaction volume. The CDK1:Cyclin-B” for “The CDK1:Cyclin-B”, “immobilized peptide. The VEGF-R kinase assay was carried out using the CDK kinase assay procedure except that the enzyme was replaced with the VEGF-R2 fusion protein containing a polyhistidine tag at the N-terminus followed by amino acids 786-1343 of the rat VEGF-R2 kinase domain (GenBank Accession #U93306).” for “immobilized peptide.”

Assay [3] addresses T3, Aurora-A (Mus musculus, UniProt P97477).
T3 construct: made in house; host or cells: sf9 insect cells
T3 sequence (P97477 1-395): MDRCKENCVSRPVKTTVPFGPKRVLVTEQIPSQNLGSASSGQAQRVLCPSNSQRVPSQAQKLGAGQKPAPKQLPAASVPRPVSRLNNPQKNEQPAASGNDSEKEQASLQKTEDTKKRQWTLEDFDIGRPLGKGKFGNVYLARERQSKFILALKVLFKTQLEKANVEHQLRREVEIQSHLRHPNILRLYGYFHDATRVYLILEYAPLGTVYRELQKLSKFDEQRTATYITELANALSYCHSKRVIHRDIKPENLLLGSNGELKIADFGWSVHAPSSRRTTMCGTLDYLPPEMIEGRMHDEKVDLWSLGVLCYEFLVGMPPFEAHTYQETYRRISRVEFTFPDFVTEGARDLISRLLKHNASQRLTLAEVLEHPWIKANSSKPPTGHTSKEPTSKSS
The assay is described as follows: Aurora-A Screening Assay. Type of assay: biochemical, murine. Conditions: 33P-γ-ATP incorporation, 10 μM ATP. Here is the method: as §1, §2
The Aurora-A kinase assay was carried out using the CDK kinase assay procedure except that the enzyme was replaced with the full length protein encoding the murine Aurora-A (Accession# GB BC014711) expressed and purified from sf9 insect cells.
as §3

Assay [4] relates to HeLa cervical adenocarcinoma. In words: Inhibition of cell proliferation (14C-thymidine incorporation), HeLa.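 Also: HeLa cells in 96-well scintillating plates, compound for 24 h then 24 h more with 14C-thymidine, counting label built into new DNA against DMSO-only control wells.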 In kind it is cell-based. Conditions: Homo sapiens. In general terms: Uptake of a labelled nucleoside into DNA is a usual measure of proliferation.
Assay [5] relates to HCT-116 colon carcinoma. In words: Inhibition of cell proliferation (14C-thymidine incorporation), HCT-116. The conditions noted are these: Homo sapiens, HCT-116, HCT116. In kind it is cell-based. Here is the method:
(§4) The ability of a test compound to inhibit the proliferation of cell growth was determined by measuring incorporation of ^14C-labelled thymidine into newly synthesized DNA within the cells. This method was used on cell lines derived from carcinomas originating from several tissues such as HeLa cervical adenocarcinoma (American Type Culture Collection (ATCC), Virginia, Cat. #CCL-2), A375 malignant melanoma (ATCC CRL-1619), HCT-116 colon carcinoma (CCL-247). In this way the effect of a compound on cell growth of cells with many different phenotypes can be determined. Cells were trypsinized and counted and 3000-8000 cells were added to each well of a 96-well CytoStar tissue culture treated scintillating microplate (Amersham #RPNQ0160) in complete medium in a volume of 100 μL. Cells were incubated for 24 hours in complete medium at 37° C. in an atmosphere containing 5% CO2.
(§5) Next, 1 μL of test compound in 100% DMSO was added to the wells of the plate. DMSO only was added to control wells. Cells were incubated for 24 more hours in complete medium at 37° C. in an atmosphere containing 5% CO2. Methyl ^14C-thymidine 56 mCi/mmol (NEN #NEC568 or Amersham #CFA532) was diluted in complete medium and 0.2 uCi/well was added to each well of the CytoStar plate in a volume of 20 μl. The plate was incubated for 24 hours at 37° C. plus 5% CO2 in drug plus ^14C-thymidine. The contents of the plate discarded into a ^14C radioactive waste container by inverting the plate and the plate was washed twice with 200 μL PBS.
(§6) 200 μL of PBS is added to each well. The top of the plate was sealed with a transparent plate sealer and a white plate backing sealer (Packard #6005199) was applied to the bottom of the plate. The degree of methyl ^14C-thymidine incorporation was quantified on a Packard Top Count.

Assay [6] concerns A375 malignant melanoma. The assay is described as follows: Inhibition of cell proliferation (14C-thymidine incorporation), A375. In kind it is cell-based, human. The conditions noted are these: Homo sapiens, A-375. Here is the method:
as §4, §5, §6

Structures are written as SMILES.

The source of these data is patent US7855205B2, “Pyrimidinyl substituted fused-pyrrolyl compounds useful in treating kinase disorders” (Janssen Pharmaceutica NV, priority 2004, dated 2010).

T1 sequence (P06493 whole entry): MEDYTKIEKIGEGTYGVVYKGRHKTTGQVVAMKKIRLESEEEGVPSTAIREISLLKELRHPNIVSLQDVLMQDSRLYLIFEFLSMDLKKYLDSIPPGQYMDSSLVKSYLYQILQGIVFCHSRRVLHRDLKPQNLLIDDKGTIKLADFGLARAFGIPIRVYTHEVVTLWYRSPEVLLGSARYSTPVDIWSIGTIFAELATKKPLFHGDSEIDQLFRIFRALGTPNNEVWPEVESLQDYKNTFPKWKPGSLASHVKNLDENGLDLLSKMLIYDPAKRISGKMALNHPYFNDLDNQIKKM
T1 sequence (P14635 whole entry partner): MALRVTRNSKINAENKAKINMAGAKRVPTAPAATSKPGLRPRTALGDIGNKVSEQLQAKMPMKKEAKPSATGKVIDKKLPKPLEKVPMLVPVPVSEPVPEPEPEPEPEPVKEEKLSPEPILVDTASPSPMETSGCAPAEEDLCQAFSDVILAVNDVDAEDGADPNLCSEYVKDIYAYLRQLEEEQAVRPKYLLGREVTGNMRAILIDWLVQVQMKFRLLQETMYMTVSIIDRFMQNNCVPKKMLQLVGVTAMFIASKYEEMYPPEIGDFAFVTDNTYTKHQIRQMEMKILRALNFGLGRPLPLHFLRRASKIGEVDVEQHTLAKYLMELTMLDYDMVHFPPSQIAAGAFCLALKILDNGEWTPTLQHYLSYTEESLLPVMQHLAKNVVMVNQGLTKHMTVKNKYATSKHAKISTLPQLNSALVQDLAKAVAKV

Regarding `Oc1ccccc1Nc1nccc(-c2c[nH]c3ncccc23)n1` [Cpd 30, (2-Hydroxyphenyl)-[4-(1H-pyrrolo[2,3-b]pyridin-3-yl)-pyrimidin-2-yl]-amine], the half-inhibitory concentration (IC50) stood at 0.139 µM in assay [1]; 0.049 µM in assay [2]; 0.289 µM in assay [3]; 0.956 µM in assay [4]; 0.652 µM in assay [5]; 1650 nM in assay [6].

Regarding `Fc1ccccc1Nc1nccc(-c2c[nH]c3ncccc23)n1` [Cpd 31, (2-Fluorophenyl)-[4-(1H-pyrrolo[2,3-b]pyridin-3-yl)-pyrimidin-2-yl]-amine], the concentration for half-maximal inhibition (IC50) turned out to be 0.046 µM in assay [1]; 1 µM in assay [2]; 0.1 µM in assay [3]; 0.0992 µM in assay [4]; 0.105 µM in assay [5]; 110 nM in assay [6].

Consider `CCc1ccccc1Nc1nccc(-c2c[nH]c3ncccc23)n1` [Cpd 32, (2-Ethylphenyl)-[4-(1H-pyrrolo[2,3-b]pyridin-3-yl)-pyrimidin-2-yl]-amine], for which the IC50 in assay [1] worked out at 0.068 µM; in assay [2], 1.47 µM; in assay [3] it was 0.396 µM; in assay [4], 0.292 µM; in assay [5] it was 0.254 µM; in assay [6] it was 217 nM.

Turning to `Cc1ccc(Nc2nccc(-c3c[nH]c4ncccc34)n2)c(C)c1` [Cpd 33, (2,4-Dimethylphenyl)-[4-(1H-pyrrolo[2,3-b]pyridin-3-yl)-pyrimidin-2-yl]-amine], the IC50 in assay [1] came to 0.001 µM; in assay [2], 1.14 µM; in assay [3] it was 0.408 µM; in assay [4], 0.000993 µM; in assay [5] it was 0.000542 µM; in assay [6], 0.0467 nM.

With `Cc1cccc(Nc2nccc(-c3c[nH]c4ncccc34)n2)c1C` [Cpd 34, (2,3-Dimethylphenyl)-[4-(1H-pyrrolo[2,3-b]pyridin-3-yl)-pyrimidin-2-yl]-amine], the IC50 in assay [1] is 0.004 µM; in assay [2], 0.618 µM; in assay [3], 0.238 µM; in assay [4], 0.0114 µM; in assay [5], 0.00137 µM; in assay [6], 15.7 nM.

With `Oc1ccc(Nc2nccc(-c3c[nH]c4ncccc34)n2)cc1` [Cpd 39, (4-Hydroxyphenyl)-[4-(1H-pyrrolo[2,3-b]pyridin-3-yl)-pyrimidin-2-yl]-amine], the IC50 was 0.168 µM in assay [1]; 1.66 µM in assay [2]; 0.735 µM in assay [3]; 0.384 µM in assay [4]; 0.242 µM in assay [5]; 862 nM in assay [6].

As for `Cc1cc(Br)ccc1Nc1nccc(-c2c[nH]c3ncccc23)n1` [Cpd 41, (4-Bromo-2-methylphenyl)-[4-(1H-pyrrolo[2,3-b]pyridin-3-yl)-pyrimidin-2-yl]-amine], the half-inhibitory concentration (IC50) in assay [1] amounted to 0.0063 µM; in assay [2], 1.64 µM; in assay [3], 0.182 µM; in assay [4], 0.0101 µM; in assay [5], 0.0132 µM; in assay [6], 42 nM.

`N[C@H]1CC[C@H](Nc2nccc(-c3c[nH]c4ncccc34)n2)CC1` [Cpd 42, trans-N-[4-(1H-Pyrrolo[2,3-b]pyridin-3-yl)-pyrimidin-2-yl]-cyclohexane-1,4-diamine]: the half-inhibitory concentration (IC50) in assay [1] amounted to 0.002 µM; in assay [2] it was 7.88 µM; in assay [3], 0.917 µM; in assay [4], 0.00112 µM; in assay [5], 0.000353 µM; in assay [6] it was 0.743 nM.

On to `Cc1cc(CCN(C)C)ccc1Nc1nccc(-c2c[nH]c3ncccc23)n1` [Cpd 46], for which the concentration for half-maximal inhibition (IC50) in assay [1] was determined as 0.0016 µM; in assay [2], 0.341 µM; in assay [3] it was 0.466 µM; in assay [4] it was 0.000963 µM; in assay [5], 0.000545 µM; in assay [6] it was 0.634 nM.

As to `Cc1cc(CCN2CCN(C)CC2)ccc1Nc1nccc(-c2c[nH]c3ncccc23)n1` [Cpd 51, {4-[2-(4-Methylpiperizin-1-yl)ethyl]-2-methylphenyl}-[4(1H-pyrrolo[2,3-b]pyridin-3-yl)-pyrimidin-2-yl]-amine], the concentration for half-maximal inhibition (IC50) worked out at 0.0026 µM in assay [1]; 1.25 µM in assay [2]; 0.895 µM in assay [3]; 0.00466 µM in assay [4]; 0.00361 µM in assay [5]; 3.52 nM in assay [6].

For the compound `Cc1[nH]c2ncccc2c1-c1ccnc(N[C@H]2CC[C@H](N)CC2)n1` [Cpd 57, trans-N-[4-(2-Methyl-1H-pyrrolo[2,3-b]pyridin-3-yl)-pyrimidin-2-yl]-cyclohexane-1,4-diamine], the 50% inhibitory concentration (IC50) in assay [1] was found to be 0.283 µM; in assay [2], 10 µM; in assay [3], 3.98 µM; in assay [4], 0.135 µM; in assay [5], 0.0732 µM; in assay [6], 97.3 nM.

For `c1cnc2[nH]cc(-c3ccnc(N[C@@H]4CC5CCC4C5)n3)c2c1` (stereo partly drawn) [Cpd 58, (2R)-Bicyclo[2.2.1]hept-2-yl-[4-(1H-pyrrolo[2,3-b]pyridin-3-yl)-pyrimidin-2-yl]-amine], the IC50 in assay [1] came out at 0.109 µM; in assay [2] it was 1.54 µM; in assay [3], 0.566 µM; in assay [4], 0.514 µM; in assay [5] it was 0.222 µM; in assay [6], 277 nM.

In the case of `c1cnc2[nH]cc(-c3ccnc(N[C@H]4CC5CCC4C5)n3)c2c1` (stereo partly drawn) [Cpd 59, (2S)-Bicyclo[2.2.1]hept-2-yl-[4-(1H-pyrrolo[2,3-b]pyridin-3-yl)-pyrimidin-2-yl]-amine], the IC50 was found to be 0.062 µM in assay [1]; 0.55 µM in assay [2]; 0.437 µM in assay [3]; 0.291 µM in assay [4]; 0.379 µM in assay [5]; 251 nM in assay [6].

For orientation: IC50 means the concentration needed to halve the response being measured.
